Source: paper PMC10552749, “Anti-methicillin-resistant Staphylococcus aureus and antibiofilm activity of new peptides produced by a Brevibacillus strain” (PeerJ, 2023)
≈ marks a conversion by molar mass, not a printed value. Where “and” joins values, the source holds several entries; their conditions need not be identical. Equal entries are not always repeated. Where no end group is shown, it is not given here.

Assays:
MRSA isolate 1096 [1] = experiment: microbe, parasite or virus in culture; format: cell-based; details: Staphylococcus aureus, 24 h
Procedure: (§1) The assay was conducted in accordance with the guideline of the Clinical and Laboratory Standard Institute (CLSI). […] The cell suspension was prepared in a 20-fold dilution using Cation-Adjusted Mueller-Hinton broth (CAHMB) as a diluent. A total of 10 µL of the diluted bacterial preparation and 100 µL of pure substances (0.25–64 µg/mL) were loaded into the 96-well plates. The plates were incubated at 37 °C for 24 h. Control wells were performed for broth (CAMHB) and inoculum. Vancomycin was tested as a control drug. The experiment was performed in triplicate for each tested strain.

MRSA isolate 142 [2] = experiment: microbe, parasite or virus in culture; format: cell-based; details: Staphylococcus aureus, 24 h
Procedure: as §1

MRSA isolate 2468 [3] = experiment: microbe, parasite or virus in culture; format: cell-based; details: Staphylococcus aureus, 24 h
Procedure: as §1

S. aureus TISTR 517 [4] = experiment: microbe, parasite or virus in culture; format: cell-based; details: Staphylococcus aureus, TISTR517, 24 h
Procedure: as §1

MRSA isolate 1096 [5] = experiment: microbe, parasite or virus in culture; format: cell-based, Staphylococcus aureus
Procedure: (§2) Wells of 9 mm were punched on the solid media surface by a sterile tip, and 100 µL of purified substance was loaded before incubating the plates at 37 °C for 24 h. […] The result was collected from three independent experiments in which the diameter of the zone of inhibition was measured by a vernier caliper and reported as mean ± SD ([Lei et al., 2020]). The significant difference was determined by Student’s t-test at a p-value of less than 0.05.

MRSA isolate 142 [6] = experiment: microbe, parasite or virus in culture; format: cell-based, Staphylococcus aureus
Procedure: as §2

MRSA isolate 2468 [7] = experiment: microbe, parasite or virus in culture; format: cell-based, Staphylococcus aureus
Procedure: as §2

S. aureus TISTR 517 [8] = experiment: microbe, parasite or virus in culture; format: cell-based, Staphylococcus aureus
Procedure: as §2

S. aureus TISTR 517 [9] = experiment: Inhibition of biofilm formation (crystal violet); format: cell-based; details: Staphylococcus aureus, TISTR517, 48 h, read-out: IC50 of biofilm formation
Procedure: (§3) The cells were standardized using the same medium to achieve 1 × 10^8 CFU/mL. The cell suspension was mixed with peptide at various concentrations (0.5–256 µg/mL) in a 96-well plate. The plates were then incubated at 37 °C for 48 h. Then, the planktonic bacteria cells were removed from the plates by washing them with PBS. Thereafter, 100 µL of methanol was added to the plate to fix the biofilm-associated cells. The plates were dried and stained with 0.1% crystal violet for 15 min before rinsing twice with PBS. A total of 100 μL of […] was finally added to resolubilize the stained crystal violet. The plates were incubated at 37 °C for 30 min, and the supernatants were transferred to a new 96-well plate. The absorbance at 570 nm was measured by a microplate reader (Thermo Fisher Scientific Inc., Waltham, MA, USA) to determine the biofilm formation. […] One-way ANOVA was used to analyze the significant differences among treated samples compared to the untreated controls at various p-values.

MRSA isolate 2468 [10] = experiment: Inhibition of biofilm formation (crystal violet); format: cell-based, Staphylococcus aureus
Procedure: as §3

MRSA isolate 2468 [11] = experiment: Biofilm eradication assay; format: cell-based, Staphylococcus aureus; details: vs untreated, p-value < 0.05
Procedure: (§4) The bacteria were standardized to achieve 1 × 10^8 CFU/mL, and 100 µL of cell suspension was transferred to a 96-well microplate. The plates were incubated at 37 °C for 48 h for biofilm formation. The free bacteria cells were removed from the plates by washing them with PBS. Peptide solutions at the concentrations (0.5–256 µg/mL) were added to the microplate and incubated at 37 °C for 24 h. Subsequently, PBS was used to rewash the plate, and 100 µL of PBS was loaded into each well. The plate was sonicated for 30 min at room temperature, and the samples were taken and made a ten-fold serial dilution. A total of 10 µL of the diluted samples was plated on MH agar for colony count. Vancomycin and untreated samples were used as the positive and negative controls. Only SCD media without bacteria was used as the blank ([Yuan et al., 2019]). The significant difference was evaluated by one-way ANOVA (p-value < 0.05) compared to untreated controls.

[12] = tested on: S. aureus TISTR 517 and MRSA isolate 142, 1096, and 2468; experiment: microbe, parasite or virus in culture; format: cell-based, Staphylococcus aureus
Procedure: as §1

[13] = tested on: S. aureus TISTR 517 and MRSA isolate 2468; experiment: Biofilm eradication assay, statements for both tested bacteria; format: cell-based, Staphylococcus aureus
Procedure: as §4

[14] = tested on: S. aureus and MRSA biofilms; details: statically grown biofilms of S. aureus and MRSA; ref Zapotoczna et al., 2017; cited from earlier work
Text: Biofilm is an important virulence mechanism in many bacterial pathogens. The cells irreversibly adhere to the biotic and abiotic surfaces and are surrounded by an extracellular matrix in response to stress conditions ([Flemming & Wuertz, 2019]). […] S. aureus and MRSA develop a biofilm to decrease or prevent the diffusion of antimicrobial drugs into the cells, resulting in more drug r ...

[15] = ref Baczek, Walijewski & Kaliszan, 2008, cited from earlier work
human erythrocytes = format: cell-based
Procedure: The Ethics Committee in Human Research at Walailak University has approved this study (WUEC-22-242-01; 15 August 2022). The written consent was obtained from a subject involved in the research. Whole blood (5 mL) was collected from a human volunteer and centrifuged at 700× g for 8 min. The pellets were washed 3 times with PBS before diluting to obtain 0.5% erythrocyte suspension. A total of 50 µL of erythrocytes was added to a 96-well plate, and the purified peptide in PBS (50 μL) was mixed to achieve the final peptide concentration of 1, 2, 4, 8, 16, 32, 64, 128, 256, and 512 µg/mL. The mixtures were then incubated at 37 °C for 1 h. They were further centrifuged at 1,000× g for 10 min, and the supernatant was loaded into a microplate before measuring the absorbance at 540 nm. The positive and negative controls were 1% Triton X-100 and untreated samples, respectively, while PBS was used as a blank control. This assay was carried out in three independent experiments. The percent hemolysis was calculated by the following equation:
%Hemolysis=[Asam−Ablank]/[Apos−Ablank]×100 where Asam is the sample absorbance, Apos and Ablank are the absorbance of positive and blank controls, respectively ([Oddo & Hansen, 2017]).

[16] = Staphylococcus aureus, read-out: Inhibition zone
[17] = Vancomycin (30 μg), mean ± SD, n = 3

In the case of CN[C@H](CC(C)C)C(=O)N[C@H]1C(=O)N[C@@H](CC(N)=O)C(=O)N[C@H]2C(=O)N[C@H]3C(=O)N[C@H](C(=O)N[C@H](C(=O)O)c4cc(O)cc(O)c4-c4cc3ccc4O)[C@H](O)c3ccc(c(Cl)c3)Oc3cc2cc(c3O[C@@H]2O[C@H](CO)[C@@H](O)[C@H](O)[C@H]2O[C@H]2C[C@](C)(N)[C@H](O)[C@H](C)O2)Oc2ccc(cc2Cl)[C@H]1O [Vancomycin], the MBC (MRSA isolate 1096 [1]) is reported as 2 µg/mL (≈ 1.38 µM), the MIC (MRSA isolate 1096 [1]) is reported as 2 µg/mL (≈ 1.38 µM) and the MBC (MRSA isolate 142 [2]) is reported as 2 µg/mL (≈ 1.38 µM). For the same compound, the MIC (MRSA isolate 142 [2]) was 2 µg/mL (≈ 1.38 µM), the MBC (MRSA isolate 2468 [3]) was 2 µg/mL (≈ 1.38 µM) and the MIC (MRSA isolate 2468 [3]) was 2 µg/mL (≈ 1.38 µM). It also gave an MBC (S. aureus TISTR 517 [4]) of 2 µg/mL (≈ 1.38 µM), an MIC (S. aureus TISTR 517 [4]) of 2 µg/mL (≈ 1.38 µM) and a zone of inhibition at 30 µg/disc (MRSA isolate 1096 [5]; [16]) of 23.1 ± 0.36 mm. The Inhibition zone (MRSA isolate 1096 [5]; [17]) was 23.10 mm, the zone of inhibition at 30 µg/disc (MRSA isolate 142 [6]; [16]) was 23.5 ± 0.59 mm and the Inhibition zone (MRSA isolate 142 [6]; [17]) was 23.47 mm. For the same compound, the zone of inhibition at 30 µg/disc (MRSA isolate 2468 [7]; [16]) was 23.9 ± 0.1 mm, the Inhibition zone (MRSA isolate 2468 [7]; [17]) was 23.90 mm and the zone of inhibition at 30 µg/disc (S. aureus TISTR 517 [8]; Staphylococcus aureus, TISTR517, read-out: Inhibition zone) was 20.7 ± 0.23 mm. For the same compound, the Inhibition zone (S. aureus TISTR 517 [8]; [17]) was 20.73 mm, the IC50 (S. aureus TISTR 517 [9]) was 4.84 µg/mL (≈ 3.34 µM) and the “Biofilm formation (% of untreated) after treatment” value (MRSA isolate 2468 [10]; 4 μg/mL or 2× MIC, 37 °C 48 h, crystal violet, A570, mean ± SD of three experiments) was 68.25 ± 4.21%. The IC50 (MRSA isolate 2468 [10]; Staphylococcus aureus, 48 h, read-out: IC50 of biofilm formation) was 5.91 µg/mL (≈ 4.08 µM), the “Concentration that significantly reduced persistent cells in biofilm” value (MRSA isolate 2468 [11]) was 64 µg/mL and the MBC ([12]; Staphylococcus aureus) was 2 µg/mL (≈ 1.38 µM). The MIC ([12]; Staphylococcus aureus) was 2 µg/mL and 1.38 µM, the MBC ([12]; against all tested bacteria) was 2 µg/mL (≈ 1.38 µM) and the MIC ([12]; against all tested bacteria) was 2 µg/mL (≈ 1.38 µM). The “Concentration to destroy mature biofilms as multiple of MIC” value ([13]; 128 μg/mL relative to MIC) was 64 × MIC, the “Concentration that completely eradicated biofilm (killed persistent cells)” value ([13]; 48 h preformed biofilms, 24 h treatment, both bacteria) was 128 µg/mL and the “Concentration for half-maximal inhibition of biofilms” value [14] was 16.0 to 68.2 µg/mL.
For “DAEFGHDSG-NH2 [literature model peptide for RPC retention]”, the RPC retention time ([15]; isocratic elution by 0.1% TFA and ACN) is given as 3.75 min and the pI [15] is given as 4.02.
With MFLVVKVLKYVV [BrSPR19-P2] the “Therapeutic index (TI) of hemolysis / hemolysis index threshold” value (human erythrocytes) was 32.
